Source: patent US11434242B2, “Dopamine-b-hydroxylase inhibitors” (BIAL-PORTELA & Cª, S.A., priority 2017, dated 2022)
Marks after values point to notes of the source that are not given here.

Target: T1, Dopamine beta hydroxylase (Homo sapiens, UniProt P09172)
T1 construct: 125 μl of plasma; tissue Instituto Português do Sangue Transplantação; host or cells: human plasma from healthy donors
T1 sequence (P09172 40-617 limits assumed): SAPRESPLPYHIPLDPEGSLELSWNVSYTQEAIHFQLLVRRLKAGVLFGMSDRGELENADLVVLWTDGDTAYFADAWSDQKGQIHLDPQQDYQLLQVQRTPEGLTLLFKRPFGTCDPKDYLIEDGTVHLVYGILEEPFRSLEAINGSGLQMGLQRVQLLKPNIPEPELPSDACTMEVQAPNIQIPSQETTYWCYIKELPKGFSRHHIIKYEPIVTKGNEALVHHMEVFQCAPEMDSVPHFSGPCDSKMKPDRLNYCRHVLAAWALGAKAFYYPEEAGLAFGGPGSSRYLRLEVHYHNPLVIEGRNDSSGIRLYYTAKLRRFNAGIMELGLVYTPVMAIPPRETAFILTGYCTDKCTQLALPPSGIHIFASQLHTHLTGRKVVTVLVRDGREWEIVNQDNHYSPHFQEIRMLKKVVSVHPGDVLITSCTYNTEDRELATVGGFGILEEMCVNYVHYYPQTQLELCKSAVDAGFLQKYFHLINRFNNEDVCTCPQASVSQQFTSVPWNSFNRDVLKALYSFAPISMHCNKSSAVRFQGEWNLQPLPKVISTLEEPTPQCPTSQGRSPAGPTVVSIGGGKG
Assay: Dopamine beta hydroxylase activity in human plasma
Type: biochemical
Settings: for Plasma (1 μM), activity in % of control: inhibitor 1 μM
Method in brief: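 Healthy-donor human plasma pre-incubated 10 min at 37° C with compound at final 10, 100 or 1000 nM in pH 5.0 acetate buffer with ascorbate, fumarate, pargyline, N-ethylmaleimide, catalase and copper sulfate. Tyramine substrate then added for 45 min; octopamine formed was isolated by SCX cartridge, periodate-converted and read at 330 nm; activity given as % control.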

| SMILES | Plasma (0.01 μM), activity in % of control (inhibitor 0.01 μM) | Plasma (0.1 μM), activity in % of control (inhibitor 0.1 μM) | Plasma (0.01 μM), activity in % of control, re-test (asterisked) (inhibitor 0.01 μM, re-tested under the same experimental conditions, asterisked data believed to be correct) | Plasma (0.1 μM), activity in % of control, re-test (asterisked) (inhibitor 0.1 μM, re-tested under the same experimental conditions, asterisked data believed to be correct) | Plasma (1 μM), activity in % of control |
| --- | --- | --- | --- | --- | --- |
| O=C(Cc1[nH]c(=S)n2c1C[C@@H](c1c(F)ccc(Cl)c1F)C2)NCCn1cccn1 [Example 162, (S)—N-(2-(1H-pyrazol-1-yl)ethyl)-2-(6-(3-chloro-2,6-difluorophenyl)-3-thioxo-2,5,6,7-tetrahydro-3H-pyrrolo[1,2-c]imidazol-1-yl)acetamide] | 87.2 % of control | 31.3 % of control |  |  |  |
| CN(C(=O)Cc1[nH]c(=S)n2c1C[C@@H](c1c(F)ccc(Cl)c1F)C2)C1CCS(=O)(=O)CC1 [Example 163, (S)-2-(6-(3-chloro-2,6-difluorophenyl)-3-thioxo-2,5,6,7-tetrahydro-3H-pyrrolo[1,2-c]imidazol-1-yl)-N-(1,1-dioxidotetrahydro-2H-thiopyran-4-yl)-N-methylacetamide] | 14.8 % of control | 2.4 % of control |  |  |  |
| CS(=O)(=O)C1CCN(C(=O)Cc2[nH]c(=S)n3c2C[C@@H](c2c(F)ccc(Br)c2F)C3)C1 (stereo partly drawn) [Example 164, 2-((S)-6-(3-bromo-2,6-difluorophenyl)-3-thioxo-2,5,6,7-tetrahydro-3H-pyrrolo[1,2-c]imidazol-1-yl)-1-(3-(methylsulfonyl)pyrrolidin-1-yl)ethan-1-one] | 65.8 % of control | 17.1 % of control |  |  |  |
| O=C(Cc1[nH]c(=S)n2c1C[C@@H](c1c(F)ccc(Br)c1F)C2)N1CCC2(CCOC2)CC1 [Example 165, (S)-2-(6-(3-bromo-2,6-difluorophenyl)-3-thioxo-2,5,6,7-tetrahydro-3H-pyrrolo[1,2-c]imidazol-1-yl)-1-(2-oxa-8-azaspiro[4.5]decan-8-yl)ethan-1-one] | 74.3 % of control | 14.8 % of control |  |  |  |
| O=C(Cc1[nH]c(=S)n2c1C[C@@H](c1c(F)ccc(Br)c1F)C2)N1CC[S+]([O-])CC1 [Example 166, (S)-2-(6-(3-bromo-2,6-difluorophenyl)-3-thioxo-2,5,6,7-tetrahydro-3H-pyrrolo[1,2-c]imidazol-1-yl)-1-(1-oxidothiomorpholino)ethan-1-one] | 66.9 % of control | 14.1 % of control |  |  |  |
| CN(C(=O)Cc1[nH]c(=S)n2c1C[C@@H](c1c(F)ccc(Br)c1F)C2)C1CCOC1 (stereo partly drawn) [Example 167, 2-((S)-6-(3-bromo-2,6-difluorophenyl)-3-thioxo-2,5,6,7-tetrahydro-3H-pyrrolo[1,2-c]imidazol-1-yl)-N-methyl-N-(tetrahydrofuran-3-yl)acetamide] | 50.8 % of control | 3.2 % of control | 78.0* % of control | 28.0* % of control |  |
| O=C(Cc1[nH]c(=S)n2c1C[C@@H](c1c(F)ccc(Cl)c1F)C2)Nc1nncs1 [Example 168, (S)-2-(6-(3-chloro-2,6-difluorophenyl)-3-thioxo-2,5,6,7-tetrahydro-3H-pyrrolo[1,2-c]imidazol-1-yl)-N-(1,3,4-thiadiazol-2-yl)acetamide] | 51.9 % of control | 10.5 % of control |  |  |  |
| O=C(Cc1[nH]c(=S)n2c1C[C@@H](c1c(F)ccc(Cl)c1F)C2)Nc1ccccn1 [Example 169, (S)-2-(6-(3-chloro-2,6-difluorophenyl)-3-thioxo-2,5,6,7-tetrahydro-3H-pyrrolo[1,2-c]imidazol-1-yl)-N-(pyridin-2-yl)acetamide] | 59.3 % of control | 17.1 % of control |  |  |  |
| O=C(Cc1[nH]c(=S)n2c1[C@@H]1C[C@]1(c1cc(Br)ccc1F)C2)Nc1ccccn1 [Example 170, 2-((5aS,6aR)-5a-(5-bromo-2-fluorophenyl)-3-thioxo-2,3,5,5a,6,6a-hexahydrocyclopropa[3,4]pyrrolo[1,2-c]imidazol-1-yl)-N-(pyridin-2-yl)acetamide] | 64.9 % of control | 2.0 % of control |  |  |  |
| O=C(Cc1[nH]c(=S)n2c1[C@@H]1C[C@]1(c1cc(Cl)ccc1F)C2)Nc1cccnc1 [Example 171, 2-((5aS,6aR)-5a-(5-chloro-2-fluorophenyl)-3-thioxo-2,3,5,5a,6,6a-hexahydrocyclopropa[3,4]pyrrolo[1,2-c]imidazol-1-yl)-N-(pyridin-3-yl)acetamide] | 40.4 % of control | 3.7 % of control |  |  |  |
| OCCc1[nH]c(=S)n2c1C[C@H](c1c(F)c(F)cc(F)c1F)C2 [Example 172, (R)-1-(2-hydroxyethyl)-6-(2,3,5,6-tetrafluorophenyl)-2,5,6,7-tetrahydro-3H-pyrrolo[1,2-c]imidazole-3-thione] |  | 46.3 % of control |  |  | 8.1 % of control |
| OCCc1[nH]c(=S)n2c1C[C@H](c1c(F)ccc(Br)c1F)C2 [Example 173, (R)-6-(3-bromo-2,6-difluorophenyl)-1-(2-hydroxyethyl)-2,5,6,7-tetrahydro-3H-pyrrolo[1,2-c]imidazole-3-thione] | 94.2 % of control | 33.1 % of control |  |  |  |
| CC(C)NCCc1[nH]c(=S)n2c1[C@@H]1C[C@]1(c1cc(Cl)ccc1F)C2.Cl [Example 175, (5aS,6aR)-5a-(5-chloro-2-fluorophenyl)-1-(2-(isopropylamino)ethyl)-5,5a,6,6a-tetrahydrocyclopropa[3,4]pyrrolo[1,2-c]imidazole-3(2H)-thione hydrochloride] |  | 61.7 % of control |  |  | 13.8 % of control |
| Fc1ccc(Br)c(F)c1[C@H]1Cc2c(CCN[C@@H]3CCOC3)[nH]c(=S)n2C1 [Example 176, (R)-6-(3-bromo-2,6-difluorophenyl)-1-(2-(((R)-tetrahydrofuran-3-yl)amino)ethyl)-2,5,6,7-tetrahydro-3H-pyrrolo[1,2-c]imidazole-3-thione] | 95.3 % of control | 74.9 % of control |  |  |  |
| Fc1ccc(Br)c(F)c1[C@H]1Cc2c(CCN3CCC(F)(F)CC3)[nH]c(=S)n2C1 [Example 177, (R)-6-(3-bromo-2,6-difluorophenyl)-1-(2-(4,4-difluoropiperidin-1-yl)ethyl)-2,5,6,7-tetrahydro-3H-pyrrolo[1,2-c]imidazole-3-thione] | 99.9 % of control | 77.1 % of control |  |  |  |
| O=S1(=O)CCC(NCCc2[nH]c(=S)n3c2C[C@H](c2c(F)ccc(Br)c2F)C3)CC1 [Example 178, (R)-6-(3-bromo-2,6-difluorophenyl)-1-(2-((1,1-dioxidotetrahydro-2H-thiopyran-4-yl)amino)ethyl)-2,5,6,7-tetrahydro-3H-pyrrolo[1,2-c]imidazole-3-thione] | 88.2 % of control | 29.5 % of control |  |  |  |
| CS(=O)(=O)C1CCN(CCc2[nH]c(=S)n3c2C[C@H](c2c(F)ccc(Br)c2F)C3)CC1 [Example 179, (R)-6-(3-bromo-2,6-difluorophenyl)-1-(2-(4-(methylsulfonyl)piperidin-1-yl)ethyl)-2,5,6,7-tetrahydro-3H-pyrrolo[1,2-c]imidazole-3-thione] | 93.5 % of control | 48.8 % of control |  |  |  |
| Fc1ccc(Br)cc1[C@]12C[C@H]1c1c(CCNCC(F)(F)F)[nH]c(=S)n1C2 [Example 180, (5aS,6aR)-5a-(5-bromo-2-fluorophenyl)-1-(2-((2,2,2-trifluoroethyl)amino)ethyl)-5,5a,6,6a-tetrahydrocyclopropa[3,4]pyrrolo[1,2-c]imidazole-3(2H)-thione] | 99.2 % of control | 22.3 % of control |  |  |  |
| Fc1ccc(Br)c(F)c1[C@@H]1Cc2c(CCNC3CCC3)[nH]c(=S)n2C1 [Example 181, (S)-6-(3-bromo-2,6-difluorophenyl)-1-(2-(cyclobutylamino)ethyl)-2,5,6,7-tetrahydro-3H-pyrrolo[1,2-c]imidazole-3-thione] | 68.9 % of control | 18.3 % of control |  |  |  |
| CS(=O)(=O)CCNCCc1[nH]c(=S)n2c1C[C@H](c1c(F)ccc(Br)c1F)C2 [Example 182, (R)-6-(3-bromo-2,6-difluorophenyl)-1-(2-((2-(methylsulfonyl)ethyl)amino)ethyl)-2,5,6,7-tetrahydro-3H-pyrrolo[1,2-c]imidazole-3-thione] | 94.6 % of control | 71.0 % of control |  |  |  |
